Consider 46 compounds from patent publication US20060252807A1, “Novel ortho-terphenyl inhibitors of p38 kinase and methods of treating inflammatory disorders” (Kalypsys, Inc., priority 2005, published 2006).

Some results are limits rather than exact numbers.

This test has as its target T1, active p38 alpha enzyme (Upstate Biotechnology) (Homo sapiens, UniProt Q16539).
T1 construct: purchased Upstate Biotechnology
The test can be described thus: p38α biochemical assay (ATP turnover, luminescent detection, Cambrex PKlight). The conditions noted are these: p38α biochemical assay, Table 1 Biological Activity. The method, then:
The p38α biochemical assay employed is based on measurement of total ATP turnover following enzyme incubation with substrate in the presence of ATP with the use of a luminescent detection reagent (Cambrex PKlight). The assays were performed in 1536-well white opaque plates.
The final volume was 7.5005 μL as prepared prepared from the addition of 5 ul of kinase reaction (p38 alpah+MapkapK2+ATP) with 0.0005 μL compound dissolved in DMSO, and 2.5 ul of the detection reagent. Assay buffer contains the following reagents to give final concentration in the assay: 200 mM Tris, 100 mM MgCl2, 1.5 mM EGTA, 4 mM CaCl2, 20 mM MOPS, 1 mM EDTA, 1% glycerol, 0.1% B-Mecaptoethanol, and 1 mg/ml BSA. Test compounds are pinned using proprietary pintool technology (Kalypsys, Inc) and delivered as […] amounts into the 5 ul mixture of active p38 alpha enzyme (Upstate Biotechnology) and MapkapK2 (Upstate Biotechnology) whole protein as a substrate for phosphorylation in the presence of 1.4 uM final concentration ATP. Reactions are incubated at 30C for 2 hours and detection reagent is added in 2.5 ul/well amounts. Assay is read using a Perkin Elmer Viewlux.

T1 sequence (Q16539 whole entry): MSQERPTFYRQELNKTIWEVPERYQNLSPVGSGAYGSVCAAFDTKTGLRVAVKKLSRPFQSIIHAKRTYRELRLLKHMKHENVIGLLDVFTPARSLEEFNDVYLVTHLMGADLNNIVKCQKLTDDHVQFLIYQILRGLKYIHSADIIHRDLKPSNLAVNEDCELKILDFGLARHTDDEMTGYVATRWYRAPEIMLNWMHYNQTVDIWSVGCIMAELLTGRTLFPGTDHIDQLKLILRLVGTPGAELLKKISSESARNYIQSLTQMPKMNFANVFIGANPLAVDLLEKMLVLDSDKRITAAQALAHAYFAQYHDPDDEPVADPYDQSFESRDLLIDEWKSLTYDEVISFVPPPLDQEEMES

Turning to `Cc1[nH]nc(-c2ccc(F)cc2)c1-c1nc(C(=O)NCc2cccnc2)cs1` [Example 76, 2-|3-(4-Fluoro-phenyl)-5-methyl-1H-pyrazol-4-yl|-thiazole-4-carboxylic acid (pyridin-3-ylmethyl)-amide], the half-maximal inhibitory concentration (IC50) (as a rule, the concentration that inhibits the measured activity by half) was not above 1000 nM.

In turn, `Cc1[nH]nc(-c2ccc(F)cc2)c1-c1nc(C(=O)NCc2ccncc2)cs1` [Example 77, 2-|3-(4-Fluoro-phenyl)-5-methyl-1H-pyrazol-4-yl|-thiazole-4-carboxylic acid (pyridin-4-ylmethyl)-amide] gave an IC50 not above 1000 nM.

`CC(C)NC(=O)c1csc(-c2[nH]c(CN3CCOCC3)nc2-c2ccc(F)cc2)n1` [Example 80, 2-|5-(4-Fluoro-phenyl)-2-morpholin-4-ylmethyl-3H-imidazol-4-yl|-thiazole-4-carboxylic acid isopropylamide] gave an IC50 not above 1000 nM.

Compound `CC(C)NC(=O)c1csc(-c2[nH]c(CN(C)C)nc2-c2ccc(F)cc2)n1` [Example 81, 2-|2-Dimethylaminomethyl-5-(4-fluoro-phenyl)-3H-imidazol-4-yl|-thiazole-4-carboxylic acid isopropylamide] came in with a 50% inhibitory concentration (IC50) not above 1000 nM.

The compound `C#CCNC(=O)c1csc(-c2[nH]c(CN3CCNCC3)nc2-c2ccc(F)cc2)n1` [Example 82, 2-|5-(4-Fluoro-phenyl)-2-piperazin-1-ylmethyl-3H-imidazol-4-yl|-thiazole-4-carboxylic acid prop-2-ynylamide] returned a half-maximal inhibitory concentration (IC50) not above 1000 nM.

Turning to `CC(C)NC(=O)c1csc(-c2[nH]c(CN3CCNCC3)nc2-c2ccc(F)cc2)n1` [Example 83, 2-|5-(4-Fluoro-phenyl)-2-piperazin-1-ylmethyl-3H-imidazol-4-yl|-thiazole-4-carboxylic acid isopropylamide], the concentration for half-maximal inhibition (IC50) was not above 1000 nM.

`CC(C)NC(=O)c1csc(-c2[nH]c(CO)nc2-c2ccc(F)cc2)n1` [Example 84, 2-|5-(4-Fluoro-phenyl)-2-hydroxymethyl-3H-imidazol-4-yl|-thiazole-4-carboxylic acid isopropylamide]: the IC50 was not above 1000 nM.

The compound `CC(=O)NCc1nc(-c2ccc(F)cc2)c(-c2nc(C(=O)NC(C)C)cs2)[nH]1` [Example 85, 2-|2-(Acetylamino-methyl)-5-(4-fluoro-phenyl)-3H-imidazol-4-yl|-thiazole-4-carboxylic acid isopropylamide] came in with a half-inhibitory concentration (IC50) not above 1000 nM.

The compound `CC(C)NC(=O)c1csc(-c2c(-c3ccc(F)cc3)ncn2C)n1` [Example 86, 2-|5-(4-Fluoro-phenyl)-3-methyl-3H-imidazol-4-yl|-thiazole-4-carboxylic acid isopropylamide] had a 50% inhibitory concentration (IC50) not above 1000 nM.

`C#CCNC(=O)c1csc(-c2c(-c3ccc(F)cc3)ncn2C)n1` [Example 87, 2-|5-(4-Fluoro-phenyl)-3-methyl-3H-imidazol-4-yl|-thiazole-4-carboxylic acid prop-2-ynylamide] returned a concentration for half-maximal inhibition (IC50) not above 1000 nM.

On to `CC(C)NC(=O)c1csc(-c2c(-c3ccc(F)cc3)ncn2C2CCN(Cc3ccccc3)CC2)n1` [Example 88, 2-|3-(1-Benzyl-piperidin-4-yl)-5-(4-fluoro-phenyl)-3H-imidazol-4-yl|-thiazole-4-carboxylic acid isopropylamide], for which the concentration for half-maximal inhibition (IC50) was more than 1000 nM.

With `C#CCNC(=O)c1csc(-c2c(-c3ccc(F)cc3)ncn2C2CCN(Cc3ccccc3)CC2)n1` [Example 89, 2-|3-(1-Benzyl-piperidin-4-yl)-5-(4-fluoro-phenyl)-3H-imidazol-4-yl|-thiazole-4-carboxylic acid prop-2-ynylamide], the IC50 was more than 1000 nM.

In turn, `CC(C)NC(=O)c1csc(-c2c(-c3ccc(F)cc3)ncn2C2CCN(C(=O)OC(C)(C)C)CC2)n1` [Example 90, 4-|4-(4-Fluoro-phenyl)-5-(4-isopropylcarbamoyl-thiazol-2-yl)-imidazol-1-yl|-piperidine-1-carboxylic acid tert-butyl ester] displayed an IC50 of more than 1000 nM.

Consider `C#CCNC(=O)c1csc(-c2c(-c3ccc(F)cc3)ncn2C2CCNCC2)n1` [Example 92, 2-|5-(4-Fluoro-phenyl)-3-piperidin-4-yl-3H-imidazol-4-yl|-thiazole-4-carboxylic acid prop-2-ynylamide], for which the IC50 was not above 1000 nM.

In the case of `C#CCNC(=O)c1csc(-c2c(-c3ccc(F)cc3)ncn2C2CCN(C(=O)CO)CC2)n1` [Example 94, 2-{5-(4-Fluoro-phenyl)-3-|1-(2-hydroxy-acetyl)-piperidin-4-yl|-3H-imidazol-4-yl}-thiazole-4-carboxylic acid prop-2-ynylamide], the IC50 is not above 1000 nM.

In turn, `O=C(O)c1csc(-c2c(-c3ccc(F)cc3)ncn2C2CCNCC2)n1` [Example 95, 2-|5-(4-Fluoro-phenyl)-3-piperidin-4-yl-3H-imidazol-4-yl|-thiazole-4-carboxylic acid] came in with a half-inhibitory concentration (IC50) of more than 1000 nM.

For `CC(C)NC(=O)c1csc(-c2[nH]c(N)nc2-c2ccc(F)cc2)n1` [Example 96, 2-|2-Amino-5-(4-fluoro-phenyl)-3H-imidazol-4-yl|-thiazole-4-carboxylic acid isopropylamide], the IC50 is not above 1000 nM.

The compound `CC(C)NC(=O)c1csc(-c2c(-c3ccc(F)cc3)nc3ncccn23)n1` [Example 97, 2-|2-(4-Fluoro-phenyl)-imidazo|1,2-a|pyrimidin-3-yl|-thiazole-4-carboxylic acid isopropylamide] came in with an IC50 of more than 1000 nM.

The compound `CC(C)NC(=O)c1csc(-c2oc(CN)nc2-c2ccc(F)cc2)n1` [Example 98] had an IC50 of more than 1000 nM.

Compound `CC(C)NC(=O)c1csc(-c2oc(CNC(=O)C=O)nc2-c2ccc(F)cc2)n1` [Example 99] gave a half-inhibitory concentration (IC50) of more than 1000 nM.

As to `CC(C)NC(=O)c1csc(-c2oc(CNC(=O)CC#N)nc2-c2ccc(F)cc2)n1` [Example 100], the IC50 is not above 1000 nM.

Consider `CC(C)NC(=O)c1csc(-c2oc(CNC(=O)C(C)O)nc2-c2ccc(F)cc2)n1` (stereo not shown) [Example 101], for which the IC50 was not above 1000 nM.

`CCC(=O)C(=O)NCc1nc(-c2ccc(F)cc2)c(-c2nc(C(=O)NC(C)C)cs2)o1` [Example 102] had an IC50 not above 1000 nM.

Compound `CC(C)NC(=O)c1csc(-c2oc(CNC(=O)C(C)(C)C)nc2-c2ccc(F)cc2)n1` [Example 103] registered a 50% inhibitory concentration (IC50) not above 1000 nM.

`CC(C)CC(=O)NCc1nc(-c2ccc(F)cc2)c(-c2nc(C(=O)NC(C)C)cs2)o1` [Example 104]: the IC50 is not above 1000 nM.

With `CC(C)NC(=O)c1csc(-c2oc(CNC(=O)c3cnc[nH]3)nc2-c2ccc(F)cc2)n1` [Example 105], the IC50 was not above 1000 nM.

For `CC(C)NC(=O)c1csc(-c2oc(CNC(=O)c3ncc[nH]3)nc2-c2ccc(F)cc2)n1` [Example 106], the IC50 was not above 1000 nM.

As for `CC(C)NC(=O)c1csc(-c2oc(CNC(=O)C3=CCCC3)nc2-c2ccc(F)cc2)n1` [Example 107], the IC50 was more than 1000 nM.

Compound `CC(C)NC(=O)c1csc(-c2oc(CNC(=O)C(F)(F)F)nc2-c2ccc(F)cc2)n1` [Example 108] returned a half-maximal inhibitory concentration (IC50) not above 1000 nM.

`CC(C)NC(=O)c1csc(-c2oc(CNC(=O)C3CCCO3)nc2-c2ccc(F)cc2)n1` (stereo not shown) [Example 109] registered a half-inhibitory concentration (IC50) not above 1000 nM.

The compound `CC(=O)NCC(=O)NCc1nc(-c2ccc(F)cc2)c(-c2nc(C(=O)NC(C)C)cs2)o1` [Example 110] displayed an IC50 not above 1000 nM.

The compound `CC(C)NC(=O)c1csc(-c2oc(CNC(=O)c3ccccc3)nc2-c2ccc(F)cc2)n1` [Example 111] yielded an IC50 of more than 1000 nM.

`CC(C)NC(=O)c1csc(-c2oc(CNC(=O)c3cccnc3)nc2-c2ccc(F)cc2)n1` [Example 112] returned an IC50 not above 1000 nM.

For `CC(C)NC(=O)c1csc(-c2oc(CNC(=O)c3ccncc3)nc2-c2ccc(F)cc2)n1` [Example 113], the IC50 is not above 1000 nM.

In the case of `CC(C)NC(=O)c1csc(-c2oc(CNC(=O)c3ccccn3)nc2-c2ccc(F)cc2)n1` [Example 114], the IC50 is more than 1000 nM.

For `CC(C)NC(=O)c1csc(-c2oc(CNC(=O)C(O)CCl)nc2-c2ccc(F)cc2)n1` (stereo not shown) [Example 115], the half-maximal inhibitory concentration (IC50) is not above 1000 nM.

With `Cc1cc(C(=O)NCc2nc(-c3ccc(F)cc3)c(-c3nc(C(=O)NC(C)C)cs3)o2)n[nH]1` [Example 116], the half-inhibitory concentration (IC50) was not above 1000 nM.

`CC(C)NC(=O)c1csc(-c2oc(CNC(=O)c3cn(C)cn3)nc2-c2ccc(F)cc2)n1` [Example 117] showed an IC50 of more than 1000 nM.

`CC(C)NC(=O)c1csc(-c2oc(CNC(=O)C3CCCCC3)nc2-c2ccc(F)cc2)n1` [Example 118] showed an IC50 not above 1000 nM.

Take `CC(C)NC(=O)c1csc(-c2oc(CNC(=O)c3cscn3)nc2-c2ccc(F)cc2)n1` [Example 119]: the IC50 is not above 1000 nM.

Take `CCOC(=O)CC(=O)NCc1nc(-c2ccc(F)cc2)c(-c2nc(C(=O)NC(C)C)cs2)o1` [Example 120]: the concentration for half-maximal inhibition (IC50) was not above 1000 nM.

`Cc1cccc(C(=O)NCc2nc(-c3ccc(F)cc3)c(-c3nc(C(=O)NC(C)C)cs3)o2)c1` [Example 121] had an IC50 of more than 1000 nM.

On to `Cc1ccccc1C(=O)NCc1nc(-c2ccc(F)cc2)c(-c2nc(C(=O)NC(C)C)cs2)o1` [Example 122], for which the concentration for half-maximal inhibition (IC50) was more than 1000 nM.

As to `Cc1ccc(C(=O)NCc2nc(-c3ccc(F)cc3)c(-c3nc(C(=O)NC(C)C)cs3)o2)cc1` [Example 123], the IC50 was more than 1000 nM.

Turning to `CC(C)NC(=O)c1csc(-c2oc(CNC(=O)c3cccc(O)c3)nc2-c2ccc(F)cc2)n1` [Example 124], the IC50 was not above 1000 nM.

Regarding `CC(C)NC(=O)c1csc(-c2oc(CNC(=O)c3ccccc3O)nc2-c2ccc(F)cc2)n1` [Example 125], the IC50 was more than 1000 nM.
